Read-outs that look alike come from different tables or passages of the source.
What was measured:
hM4 [1] = target: T1, hM4 (Homo sapiens, UniProt P08173); design: method as in Ozenil et al. [10]; conditions: [3H]NMS; ref Ozenil et al. [10]; read-out: Affinity: Ki ± SD hM4; cited from earlier work
T1 sequence (P08173 1-479): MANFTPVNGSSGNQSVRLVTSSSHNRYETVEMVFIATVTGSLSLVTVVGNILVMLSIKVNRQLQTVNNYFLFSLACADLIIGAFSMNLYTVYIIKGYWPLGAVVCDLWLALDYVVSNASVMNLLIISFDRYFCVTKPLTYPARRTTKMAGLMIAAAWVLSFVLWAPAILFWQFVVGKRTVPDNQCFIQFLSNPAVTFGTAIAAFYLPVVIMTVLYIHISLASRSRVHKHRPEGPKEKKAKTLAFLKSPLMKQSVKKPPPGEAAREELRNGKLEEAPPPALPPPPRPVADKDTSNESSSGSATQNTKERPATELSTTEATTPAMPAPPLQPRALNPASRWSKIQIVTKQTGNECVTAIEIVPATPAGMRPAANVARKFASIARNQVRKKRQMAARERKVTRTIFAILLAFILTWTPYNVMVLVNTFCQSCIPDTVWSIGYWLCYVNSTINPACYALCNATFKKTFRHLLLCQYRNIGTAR

hM2 [2] = target: T2, hM2 (Homo sapiens, UniProt P08172); design: method as in Ozenil et al. [10]; conditions: [3H]NMS; ref Ozenil et al. [10]; read-out: Affinity: Ki ± SD hM2; cited from earlier work
T2 sequence (P08172 1-466): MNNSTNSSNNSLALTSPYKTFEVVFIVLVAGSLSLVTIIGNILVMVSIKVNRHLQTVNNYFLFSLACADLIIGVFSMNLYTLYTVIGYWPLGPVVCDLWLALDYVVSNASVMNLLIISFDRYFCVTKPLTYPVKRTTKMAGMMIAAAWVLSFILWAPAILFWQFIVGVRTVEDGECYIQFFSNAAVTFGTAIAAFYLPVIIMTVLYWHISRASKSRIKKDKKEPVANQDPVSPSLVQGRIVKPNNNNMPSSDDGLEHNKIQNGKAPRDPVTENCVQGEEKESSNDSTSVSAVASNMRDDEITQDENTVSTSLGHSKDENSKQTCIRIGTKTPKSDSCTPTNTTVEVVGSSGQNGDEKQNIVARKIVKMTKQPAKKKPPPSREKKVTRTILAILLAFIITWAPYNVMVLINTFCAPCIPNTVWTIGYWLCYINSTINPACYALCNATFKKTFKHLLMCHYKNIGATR

hM1 [3] = target: T3, hM1 (Homo sapiens, UniProt P11229); design: method as in Ozenil et al. [10]; conditions: [3H]NMS; ref Ozenil et al. [10]; read-out: Affinity: Ki ± SD hM1; cited from earlier work
T3 sequence (P11229 1-460): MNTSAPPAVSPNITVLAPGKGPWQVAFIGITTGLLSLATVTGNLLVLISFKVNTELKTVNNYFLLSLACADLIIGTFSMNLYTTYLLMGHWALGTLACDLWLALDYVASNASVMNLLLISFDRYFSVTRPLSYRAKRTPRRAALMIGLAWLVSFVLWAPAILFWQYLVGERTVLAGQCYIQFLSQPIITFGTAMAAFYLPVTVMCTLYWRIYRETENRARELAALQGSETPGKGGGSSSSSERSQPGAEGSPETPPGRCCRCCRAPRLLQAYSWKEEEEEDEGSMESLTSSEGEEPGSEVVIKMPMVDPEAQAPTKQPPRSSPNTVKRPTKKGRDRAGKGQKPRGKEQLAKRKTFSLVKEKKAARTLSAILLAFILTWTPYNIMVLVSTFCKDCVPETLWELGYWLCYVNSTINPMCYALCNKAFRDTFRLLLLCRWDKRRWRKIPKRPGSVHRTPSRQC

hM3 [4] = target: T4, hM3 (Homo sapiens, UniProt P20309); design: method as in Ozenil et al. [10]; conditions: [3H]NMS; ref Ozenil et al. [10]; read-out: Affinity: Ki ± SD hM3; cited from earlier work
[5] = design: method as in Ozenil et al. [10]; conditions: ref Ozenil et al. [10]; cited from earlier work
hM1 [6] = target: T3, hM1; test: Competitive [3H]NMS radioligand binding, CHO-K1 membranes expressing hM1; conditions: for Displacement ± SD hM1: displacement of [3H]NMS, single ligand concentration corresponding to a Ki value of 1 µM (Cheng-Prusoff)
From the text: (§1) The arecaidine esters’ affinities towards the human mAChR subtypes hM1–hM5 were studied in a competitive radioligand binding assay using CHO-K1 cell membrane homogenates expressing a single mAChR subtype and tritiated N-methyl scopolamine methyl chloride ([^3H]NMS). To speed up our affinity testing regime, we subjected all test substances to preliminary single-concentration displacement assays, as described previously. Compounds with percent displacements below 75% at any of the subtypes were dropped from further investigations (Table S1). For compounds meeting the percent displacement threshold (8c, 10b, 10c, 17b, 18b, and 25), inhibition constants (Ki) were assessed in dose-dependent displacement experiments (Table 2).
(§2) Cell membranes bearing hM1-hM5 receptors were prepared as described previously. Briefly, stably transfected CHO-K1 cells were grown to at least 80% confluency in T175 flasks, washed with ice-cold DPBS, and scraped into a mixture of ice-cold 2 mL 10 mM Tris-HCl, 1 mM EDTA-buffer, pH 7.4 and 200 µL protease inhibitor. A cell homogenate was prepared by passing the cell suspension through a G29 needle. The cell homogenates corresponding to two T175 flasks were combined and subsequently centrifuged (10 min, 1000× g, 4 °C). Ultracentrifugation of the supernatant (1 h, 100,000× g, 4 °C) yielded a membrane pellet, which was suspended in 250 µL 50 mM Tris-HCl buffer, pH 7.4 and stored at −80 °C.
(§3) Then, 5 µL of test compound in DMSO, 50 µL of [^3H]NMS in assay buffer, and 445 µL of membrane suspension in assay buffer were incubated for 90 min at 23 °C in PP tubes. Maximum binding was measured by using 5 µL DMSO, and nonspecific binding was measured by using 5 µL of 1 µM scopolamine in DMSO. The effective concentration of [^3H]NMS was 0.2 nM, 0.3 nM, 0.8 nM, 0.2 nM, and 1 nM for M1–M5 and 4–30 µg membrane were used per tube. The membrane-bound radioactivity was recovered by filtration through Whatman™ GF/B glass fiber filters presoaked in aqueous 0.1% PEI using an M-36 tygon tubed cell harvester (Brandel®, Gaithersburg, MD, USA). Membranes were washed three times with ice-cold washing buffer (50 mM Tris, pH 7.4) before being dried, transferred to 2 mL scintillation cocktail (UltimaGold™, high flashpoint LSC cocktail, PerkinElmer, Waltham, MA, USA) and counted in a β-counter (Hidex TDCR liquid scintillation counter in CPM mode). IC50 values were calculated by a variable slope logistic regression using at least five distinct concentrations of test compounds, pipetted in triplicates.

hM5 [7] = target: T5, hM5 (Homo sapiens, UniProt P08912); design: method as in Ozenil et al. [10]; conditions: [3H]NMS; ref Ozenil et al. [10]; read-out: Affinity: Ki ± SD hM5; cited from earlier work
T5 sequence (P08912 1-532): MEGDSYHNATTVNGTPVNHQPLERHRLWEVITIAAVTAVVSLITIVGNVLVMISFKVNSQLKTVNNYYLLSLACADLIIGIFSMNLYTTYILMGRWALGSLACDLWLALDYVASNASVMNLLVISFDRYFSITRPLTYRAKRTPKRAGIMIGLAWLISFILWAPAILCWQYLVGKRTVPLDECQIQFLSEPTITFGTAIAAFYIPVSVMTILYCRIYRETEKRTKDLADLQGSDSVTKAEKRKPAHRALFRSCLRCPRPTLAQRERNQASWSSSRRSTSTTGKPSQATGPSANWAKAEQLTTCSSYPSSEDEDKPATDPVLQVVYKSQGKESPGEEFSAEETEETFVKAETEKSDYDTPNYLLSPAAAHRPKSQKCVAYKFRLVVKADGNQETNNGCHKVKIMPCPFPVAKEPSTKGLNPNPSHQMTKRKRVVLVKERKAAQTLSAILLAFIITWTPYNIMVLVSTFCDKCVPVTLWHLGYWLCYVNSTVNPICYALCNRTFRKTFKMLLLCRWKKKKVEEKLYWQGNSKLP

[8] = High-throughput HPLC-logD; type: physicochemical; conditions: octadecyl-poly(vinyl alcohol) column, methanol / 0.01 M sodium phosphate buffer pH 7.4
From the text: For this, logD values were estimated in an HPLC-based high-throughput assay employing an octadecyl-poly(vinyl alcohol) stationary phase. The absence of silanol groups renders this type of column especially suited in case of analytes with hydrogen bond donor capabilities as it avoids overestimating their lipophilicity.
Briefly, a mixture of toluene (≥98%, Sigma-Aldrich, St. Louis, MO, USA) and triphenylene (≥99.9%, Carl Roth, Karlsruhe, Germany) was used as internal standard. Samples were dissolved in the internal standard mixture. Using gradient elution, the injection volume was set to 7 µL, the flow rate was 1.5 mL/min, and the mobile phase consisted of a mixture of methanol and 0.01 M sodium phosphate buffer pH 7.4. The HPLC-logD values were derived from the measured retention times following the previously published equation [21, 40].

hM3 [9] = target: T4, hM3; test: Competitive [3H]NMS radioligand binding, CHO-K1 membranes expressing hM3; conditions: for Displacement ± SD hM3: displacement of [3H]NMS, single ligand concentration corresponding to a Ki value of 1 µM (Cheng-Prusoff)
From the text: as §1, §2, §3

hM5 [10] = target: T5, hM5; test: Competitive [3H]NMS radioligand binding, CHO-K1 membranes expressing hM5; conditions: for Displacement ± SD hM5: displacement of [3H]NMS, single ligand concentration corresponding to a Ki value of 1 µM (Cheng-Prusoff)
From the text: as §1, §2, §3

hM4 [11] = target: T1, hM4; test: Competitive [3H]NMS radioligand binding, CHO-K1 membranes expressing hM4; conditions: for Displacement ± SD hM4: displacement of [3H]NMS, single ligand concentration corresponding to a Ki value of 1 µM (Cheng-Prusoff)
From the text: as §1, §2, §3

hM2 [12] = target: T2, hM2; test: Competitive [3H]NMS radioligand binding, CHO-K1 membranes expressing hM2; conditions: for Displacement ± SD hM2: displacement of [3H]NMS, single ligand concentration corresponding to a Ki value of 1 µM (Cheng-Prusoff)
From the text: as §1, §2, §3

T4 sequence (P20309 whole entry): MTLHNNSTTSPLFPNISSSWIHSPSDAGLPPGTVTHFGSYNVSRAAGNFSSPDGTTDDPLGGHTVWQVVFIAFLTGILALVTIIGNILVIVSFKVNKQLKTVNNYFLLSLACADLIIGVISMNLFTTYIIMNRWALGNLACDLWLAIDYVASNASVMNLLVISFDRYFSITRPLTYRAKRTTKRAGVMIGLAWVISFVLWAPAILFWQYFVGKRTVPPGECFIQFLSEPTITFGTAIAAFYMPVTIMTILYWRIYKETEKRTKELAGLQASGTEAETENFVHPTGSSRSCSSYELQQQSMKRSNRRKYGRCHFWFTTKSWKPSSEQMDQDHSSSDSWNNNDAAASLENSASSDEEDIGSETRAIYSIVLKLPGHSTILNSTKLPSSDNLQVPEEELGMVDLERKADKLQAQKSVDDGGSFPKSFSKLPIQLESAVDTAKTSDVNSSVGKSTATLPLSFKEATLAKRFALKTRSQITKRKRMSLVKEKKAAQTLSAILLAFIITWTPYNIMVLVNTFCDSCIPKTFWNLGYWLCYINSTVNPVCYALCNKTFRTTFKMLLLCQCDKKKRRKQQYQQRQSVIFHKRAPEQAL

SMILES	chromatographic logD [8]	Displacement ± SD hM3 (hM3 [9]) [%]	Displacement ± SD hM5 (hM5 [10]) [%]	Displacement ± SD hM4 (hM4 [11]) [%]	Displacement ± SD hM1 (hM1 [6]) [%]	Displacement ± SD hM2 (hM2 [12]) [%]	other results
CN1CCC=C(C(=O)OC(c2ccccc2)c2ccccc2)C1 [DPMA, benzhydryl 1-methyl-1,2,5,6-tetrahydropyridine-3-carboxylate]	–	–	–	–	–	–	Ki (hM4 [1]): 16 ± 4 nM; Ki (hM2 [2]): 110 ± 39 nM; Ki (hM1 [3]): 3.1 ± 0.5 nM; Ki (hM3 [4]): 56 ± 22 nM; HPLC-logD [5]: 3.32 ± 0.04 ^2; x-Fold Selectivity for hM1 vs. hM2 (hM1 [6]; ratio of the Ki values hM2/hM1): 35.5 x-fold; x-Fold Selectivity for hM1 vs. hM3 (hM1 [6]; ratio of the Ki values hM3/hM1): 18.1 x-fold; x-Fold Selectivity for hM1 vs. hM4 (hM1 [6]; ratio of the Ki values hM4/hM1): 5.2 x-fold; x-Fold Selectivity for hM1 vs. hM5 (hM1 [6]; ratio of the Ki values hM5/hM1): 4.5 x-fold; Ki (hM5 [7]): 14 ± 1 nM
CN1CCC=C(C(=O)Oc2ccccc2-c2ccccc2O)C1 [Compound 27, 2′-hydroxy-[1,1′-biphenyl]-2-yl 1-methyl-1,2,5,6-tetrahydropyridine-3-carboxylate]	2.69 ± 0.01	51 ± 9	65 ± 11	46 ± 3	37 ± 6	34 ± 7	melting point: 142 to 144 °C
CN1CCC=C(C(=O)OCc2cccc(CO)c2)C1 [Compound 8b, 3-(hydroxymethyl)benzyl 1-methyl-1,2,5,6-tetrahydropyridine-3-carboxylate]	0.87 ± 0.01	34 ± 4	29 ± 6	22 ± 1	31 ± 3	23 ± 4	–
CN1CCC=C(C(=O)OC(CO)c2ccccc2)C1 (centres unmarked) [Compound 22, 2-hydroxy-1-phenylethyl 1-methyl-1,2,5,6-tetrahydropyridine-3-carboxylate]	0.92 ± 0.08	33 ± 8	72 ± 5	51 ± 5	61 ± 2	28 ± 5	–

Second part, led by results:

chromatographic logD [8]	SMILES	Displacement ± SD hM3 (hM3 [9]) [%]	Displacement ± SD hM5 (hM5 [10]) [%]	Displacement ± SD hM4 (hM4 [11]) [%]	Displacement ± SD hM1 (hM1 [6]) [%]	Displacement ± SD hM2 (hM2 [12]) [%]	other results
0.79 ± 0.01	CN1CCC=C(C(=O)OCc2ccccc2CO)C1 [Compound 8a, 2-(hydroxymethyl)benzyl 1-methyl-1,2,5,6-tetrahydropyridine-3-carboxylate]	72 ± 4	72 ± 3	56 ± 9	66 ± 5	43 ± 2	–
2.6 ± 0.1	CN1CCC=C(C(=O)OC(c2ccccc2)c2cccc(CO)c2)C1 (centres unmarked) [Compound 10b, (3-(hydroxymethyl)phenyl)(phenyl)methyl 1-methyl-1,2,5,6-tetrahydropyridine-3-carboxylate]	–	–	–	–	–	Ki (hM3 [9]; [3H]NMS, CHO-hM3 cell membrane preparations, read-out: Affinity: Ki ± SD hM3): 70.4 ± 1.8 nM; Ki (hM5 [10]; [3H]NMS, CHO-hM5 cell membrane preparations, read-out: Affinity: Ki ± SD hM5): 49.1 ± 8.5 nM; Ki (hM4 [11]; [3H]NMS, CHO-hM4 cell membrane preparations, read-out: Affinity: Ki ± SD hM4): 32.3 ± 3.8 nM; Ki (hM1 [6]; [3H]NMS, CHO-hM1 cell membrane preparations, read-out: Affinity: Ki ± SD hM1): 12.5 ± 0.8 nM; Ki (hM2 [12]; [3H]NMS, CHO-hM2 cell membrane preparations, >1000 values from two independent (single-concentration) experiments, read-out: Affinity: Ki ± SD hM2): 198 ± 35 nM
